Results on 8 compounds are retold here after publication PMC6179046, “Discovery of novel 1,3-diaryltriazene sulfonamides as carbonic anhydrase I, II, VII, and IX inhibitors” (Journal of Enzyme Inhibition and Medicinal Chemistry, 2018).

Assay in all cases: stopped-flow CO2 hydrase assay
Type in all cases: biochemical

The target of one test is T1, hCA VII (Homo sapiens, UniProt P43166).
T1 construct: gene CA7; recombinant, obtained as reported earlier; cytosolic isoform
The source says:
stopped-flow CO2 hydrase assay on hCA VII

The target in a further test is T2, hCA II (Homo sapiens, UniProt P00918).
T2 construct: gene CA2; recombinant, obtained as reported earlier; cytosolic isoform
The text has this:
stopped-flow CO2 hydrase assay on hCA II

Another test concerns the target T3, hCA I (Homo sapiens, UniProt P00915).
T3 construct: gene CA1; recombinant, obtained as reported earlier; cytosolic isoform
The text has this: stopped-flow CO2 hydrase assay on hCA I

For another test, the target named is T4, hCA IX (Homo sapiens, UniProt Q16790).
T4 construct: gene CA9; recombinant, obtained as reported earlier
The source says: stopped-flow CO2 hydrase assay on hCA IX

T1 sequence (P43166 whole entry, canonical isoform): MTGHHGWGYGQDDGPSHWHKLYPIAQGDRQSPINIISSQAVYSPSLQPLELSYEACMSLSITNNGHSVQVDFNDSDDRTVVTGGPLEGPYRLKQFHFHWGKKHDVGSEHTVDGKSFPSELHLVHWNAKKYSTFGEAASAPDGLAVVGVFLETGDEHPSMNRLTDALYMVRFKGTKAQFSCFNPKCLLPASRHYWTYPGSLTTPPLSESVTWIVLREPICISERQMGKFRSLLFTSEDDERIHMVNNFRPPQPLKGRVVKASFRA
T3 sequence (P00915 2-261): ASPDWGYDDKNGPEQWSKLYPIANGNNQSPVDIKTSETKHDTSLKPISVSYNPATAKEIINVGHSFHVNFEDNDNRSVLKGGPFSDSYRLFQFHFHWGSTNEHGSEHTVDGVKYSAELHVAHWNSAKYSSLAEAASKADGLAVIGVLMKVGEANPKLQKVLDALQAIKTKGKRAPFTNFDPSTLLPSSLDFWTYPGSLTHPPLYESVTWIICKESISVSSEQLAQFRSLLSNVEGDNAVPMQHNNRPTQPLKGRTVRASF

With `Cc1cc(C)cc(NN=Nc2cccc(S(N)(=O)=O)c2)c1` [4f, 3–(3-(3,5-dimethylphenyl)triaz-1-en-1-yl)benzenesulfonamide], the inhibition constant (Ki) was found to be 15.6 ± 0.9 nM on hCA VII, 4.3 ± 0.2 nM at hCA II, 277 ± 18 nM on hCA I and 50.8 ± 3.6 nM at hCA IX.

Turning to `N#Cc1ccc(NN=Nc2cccc(S(N)(=O)=O)c2)cc1` [4c, 3–(3-(4-cyanophenyl)triaz-1-en-1-yl) benzenesulfonamide], the Ki on hCA VII was determined as 7900 ± 456 nM; at hCA II, 605 ± 34 nM; on hCA I it was 501 ± 31 nM; at hCA IX, 8960 ± 348 nM.

Take `NS(=O)(=O)c1cccc(/N=N/Nc2ccc(F)cc2)c1` [4a, 3–(3-(4-fluorophenyl)triaz-1-en-1-yl) benzenesulfonamide]: the inhibition constant (Ki) stood at 9480 ± 348 nM at hCA VII, 858 ± 43 nM on hCA II, 365 ± 15 nM at hCA I and 8050 ± 126 nM on hCA IX.

For the compound `NS(=O)(=O)c1cccc(N=NNc2ccc(Cl)c(Cl)c2)c1` [4h, 3–(3-(3,4-dichlorophenyl)triaz-1-en-1-yl)benzenesulfonamide], the inhibitory constant (Ki) at hCA VII came out at 7830 ± 418 nM; at hCA II, 9190 ± 504 nM; on hCA I, 8370 ± 601 nM; at hCA IX, 9270 ± 451 nM.

With `COc1ccc(/N=N/Nc2cccc(S(N)(=O)=O)c2)cc1OC` [4g, 3–(3-(3,4-dimethoxyphenyl)triaz-1-en-1-yl)benzenesulfonamide], the Ki on hCA VII was 2560 ± 129 nM; at hCA II, 6460 ± 310 nM; on hCA I, 3850 ± 179 nM; at hCA IX it was 84.9 ± 4.5 nM.

As to `CCCCOc1ccc(NN=Nc2cccc(S(N)(=O)=O)c2)cc1` [4d, 3–(3-(4-butoxyphenyl)triaz-1-en-1-yl) benzenesulfonamide], the inhibitory constant (Ki) on hCA VII worked out at 5870 ± 314 nM; on hCA II, 519 ± 39 nM; at hCA I, 618 ± 40 nM; on hCA IX it was 7430 ± 216 nM.

As for `NS(=O)(=O)c1cccc(N/N=N/c2ccc(C(=O)O)cc2)c1` [4b, 4–(3-(3-sulfamoylphenyl)triaz-2-en-1-yl) benzoic acide], the Ki is 967 ± 54 nM at hCA VII, 68.7 ± 5.1 nM at hCA II, 92.3 ± 7.1 nM on hCA I and 835 ± 47 nM at hCA IX.

In the case of `COc1ccc(/N=N/Nc2cccc(S(N)(=O)=O)c2)cc1` [4e, 3–(3-(4-methoxyphenyl)triaz-1-en-1-yl) benzenesulfonamide], the Ki was determined as 5760 ± 324 nM on hCA VII, 877 ± 62 nM at hCA II, 416 ± 32 nM at hCA I and 7230 ± 159 nM on hCA IX.

As a reminder, the Ki is the dissociation constant of the complex between target and ligand, obtained from inhibition or displacement.
